Reference: ChEMBL document CHEMBL1201862, “PubChem BioAssay data set” (2004)
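Exposure lasted 48 hours, with cells grown in 96-well plates and compounds tested at five concentrations. At the GI50, growth is halved.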 Active and inactive are the calls of the source. Rule as the data show it: active = GI50 up to about 1.1 µM and inactive = higher.

What was measured:
Assay in all cases: NCI anticancer screen, dose series, 48 h
CAKI-1 = system: CAKI-1
SF-295 = system: SF-295
MCF7 = system: MCF7
MOLT-4 = system: MOLT-4
OVCAR-4 = system: OVCAR-4
SK-MEL-2 = system: SK-MEL-2
SNB-19 = system: SNB-19
RPMI-8226 = system: RPMI-8226
SR = system: SR
OVCAR-3 = system: OVCAR-3
HCC 2998 = system: HCC 2998
U-251 = system: U-251
OVCAR-8 = system: OVCAR-8
KM12 = system: KM12
OVCAR-5 = system: OVCAR-5
ACHN = system: ACHN
EKVX = system: EKVX
NCI/ADR-RES = system: NCI/ADR-RES
T47D = system: T47D
CCRF-CEM = system: CCRF-CEM
COLO 205 = system: COLO 205
SNB-75 = system: SNB-75
HOP-92 = system: HOP-92
UO-31 = system: UO-31
SF-268 = system: SF-268
TK-10 = system: TK-10
UACC-62 = system: UACC-62
DU-145 = system: DU-145
SK-MEL-28 = system: SK-MEL-28
NCI-H226 = system: NCI-H226
M14 = system: M14
786-0 = system: 786-0
HCT-116 = system: HCT-116
HCT-15 = system: HCT-15
LOX IMVI = system: LOX IMVI
K562 = system: K562
A549 = system: A549
PC-3 = system: PC-3
HL-60 = system: HL-60
Hs-578T = system: Hs-578T
A498 = system: A498
NCI-H460 = system: NCI-H460
BT-549 = system: BT-549
SK-OV-3 = system: SK-OV-3
Malme-3M = system: Malme-3M
SN12C = system: SN12C
NCI-H522 = system: NCI-H522
IGROV-1 = system: IGROV-1
HT-29 = system: HT-29
NCI-H23 = system: NCI-H23
MDA-MB-435 = system: MDA-MB-435
SF-539 = system: SF-539
UACC-257 = system: UACC-257
SW-620 = system: SW-620
MDA-N = system: MDA-N
SK-MEL-5 = system: SK-MEL-5
HOP-62 = system: HOP-62

Measured: GI50

COc1cc(C(c2ccccc2)N2C(=O)CC[C@H]2C(=O)O)cc(OC)c1OC (some centres not stated)
> 100 µM: HCT-15
inactive: CAKI-1 > 100 µM | SF-295 > 100 µM | MCF7 > 100 µM | MOLT-4 > 100 µM | OVCAR-4 > 100 µM | SK-MEL-2 > 100 µM | SNB-19 > 100 µM | RPMI-8226 > 100 µM | SR > 100 µM | OVCAR-3 > 100 µM | HCC 2998 > 100 µM | U-251 > 100 µM | OVCAR-8 > 100 µM | KM12 > 100 µM | OVCAR-5 > 100 µM | ACHN > 100 µM | EKVX > 100 µM | NCI/ADR-RES > 100 µM | T47D > 100 µM | CCRF-CEM > 100 µM | COLO 205 > 100 µM | SNB-75 > 100 µM | HOP-92 > 100 µM | UO-31 > 100 µM | SF-268 > 100 µM | TK-10 > 100 µM | UACC-62 > 100 µM | DU-145 > 100 µM | SK-MEL-28 > 100 µM | NCI-H226 > 100 µM | M14 > 100 µM | 786-0 > 100 µM | HCT-116 > 100 µM | LOX IMVI > 100 µM | K562 > 100 µM | A549 > 100 µM | PC-3 > 100 µM | HL-60 > 100 µM | Hs-578T > 100 µM | A498 > 100 µM | NCI-H460 > 100 µM | BT-549 > 100 µM | SK-OV-3 > 100 µM | Malme-3M > 100 µM | SN12C > 100 µM | NCI-H522 > 100 µM | IGROV-1 > 100 µM | HT-29 > 100 µM | NCI-H23 > 100 µM | MDA-MB-435 > 100 µM | SF-539 > 100 µM | UACC-257 > 100 µM | SW-620 > 100 µM | MDA-N > 100 µM | SK-MEL-5 > 100 µM | HOP-62 > 100 µM
